Where “and” joins values, the source holds several entries; their conditions need not be identical. Equal values may be shown once.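 Results reflect a 48-hour exposure of cells in 96-well plates to compound at five concentrations. The concentration for 50% growth inhibition is given as GI50. The concentration for full growth arrest is given as TGI.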
Columns and labels:
Experiment in all cases: inhibition of tumour cell growth, NCI panel, 48 h
HL-60(TB) leukemia = tested on: HL-60(TB) leukemia
HS 578T breast = tested on: HS 578T breast
KM12 colon = tested on: KM12 colon
MCF7 breast = tested on: MCF7 breast
MDA-MB-435 = tested on: MDA-MB-435
NCI-H23 lung = tested on: NCI-H23 lung
SF-539 CNS = tested on: SF-539 CNS
SK-MEL-2 melanoma = tested on: SK-MEL-2 melanoma
SK-OV-3 ovarian = tested on: SK-OV-3 ovarian
SNB-75 CNS = tested on: SNB-75 CNS

Row | SMILES | TGI (HL-60(TB) leukemia) [µM] | TGI (HS 578T breast) [µM] | TGI (KM12 colon) [µM] | TGI (MCF7 breast) [µM] | TGI (MDA-MB-435) [µM] | TGI (NCI-H23 lung) [µM] | TGI (SF-539 CNS) [µM] | GI50 (SK-MEL-2 melanoma) | TGI (SK-MEL-2 melanoma) [µM] | TGI (SK-OV-3 ovarian) [µM] | TGI (SNB-75 CNS) [µM] | GI50 (HL-60(TB) leukemia) | GI50 (HS 578T breast) [µM] | GI50 (KM12 colon) | GI50 (MCF7 breast) [µM] | GI50 (MDA-MB-435) [µM] | GI50 (NCI-H23 lung) | GI50 (SF-539 CNS) [µM] | GI50 (SK-OV-3 ovarian) | GI50 (SNB-75 CNS)
1 | N=C1N=Nc2nc(C3(c4nc5n(c4O)C(=N)N=N5)Cc4ccccc4C3=O)c(O)n21 (stereo not drawn) | > 100 | > 100 | > 100 | > 100 | > 100 | > 100 | > 100 | > 100 µM | > 100 | > 100 | > 100 | – | – | – | – | – | – | – | – | –
2 | COc1ccc(-c2oncc2-c2cc(OC)c3c(c2)OCO3)cc1 | > 26.5 | 21.2 | > 82.2 | > 100 | 1.27 | > 100 | 5.92 | 2.88 µM | > 29.5 | > 40.4 | 5.12 | 2.53 µM | 2.49 | 2.66 µM | 1.59 | 0.275 | 4.94 µM | 2 | 3.76 µM | 1.43 µM
3 | NS(=O)(=O)c1ccc(NCc2cnc3ccccc3c2)cc1 | 3.96 | > 100 | > 100 | > 100 | > 100 | > 100 | > 100 | – | > 100 | > 100 | > 100 | – | – | – | – | – | – | – | – | –
4 | COC(=O)/C(Br)=C/c1c[nH]c2ccc(Br)cc12 | > 100 | 17.1 | 27 | 26.8 | 25.3 | 33 | 32.9 | 6.9 µM | 25.4 | 53.9 | 33 | 61.3 µM | 1.71 | 12.6 µM | 10.9 | 12.2 | 15.3 µM | 14.9 | 17.7 µM | 12.2 µM
5 | Clc1cccc(Cc2cn3cc(-c4ccccc4)nc3s2)c1 | > 100 | > 100 | > 100 | > 100 | > 100 | 98.9 | > 100 | 3.28 µM | 34.4 | > 100 | 76.7 | 9.13 µM | 13.4 | 1.99 µM | 2.79 | 3.48 | 9.07 µM | 8.31 | 39.6 µM | 21.2 µM
6 | O=S(=O)(c1ccccc1)C1CN(Cc2ccccc2)CCN(Cc2ccccc2)C1 | 34.4 | > 100 | > 100 | > 100 | 86.6 | > 100 | > 100 | – | > 100 | > 100 | > 100 | – | – | – | – | – | – | – | – | –
7 | O=C1[C@H](c2ccccc2)C2c3ccccc3CCN12 (stereo partly drawn) | > 100 | > 100 | > 100 | > 100 | > 100 | > 100 | > 100 | > 100 µM | > 100 | > 100 | > 100 | > 100 µM | > 100 | > 100 µM | > 100 | > 100 | > 100 µM | > 100 | > 100 µM | –
8 | NNc1nc(-c2ccccn2)nc2sc3c(c12)CCCCCC3 | 36.3 | > 100 | 99 | > 100 | > 100 | > 100 | > 100 | 14.4 µM | > 100 | > 100 | 95.9 | 4.46 µM | 11 | 6.46 µM | 3.84 | 5.17 | 9 µM | 10.9 | 30.9 µM | 12.6 µM
9 | OCCCNC(=S)Nc1ccc(-c2nc3ccccc3s2)cc1 | > 100 | > 100 | 46.9 | > 100 | 50.8 | 60.8 | 95.4 | 31.6 µM | > 100 | > 100 | 78.8 | 25.5 µM | 33 | 17.8 µM | 32.5 | 17.9 | 24.3 µM | 29.8 | 63.7 µM | 18.8 µM
10 | CCN1CCN(Cc2ccc3cc(C(=O)Nc4cc(NC(=O)c5ccc6c(c5)OCCO6)ccc4F)ccc3n2)CC1 | 0.182 | 0.308 | 7.63 | 6.75 | 3.42 | 5.27 | 0.72 | 0.029 µM | 0.118 | 1.14 | 0.456 | 0.0238 µM | 0.0329 | 0.0786 µM | 0.183 | 0.0608 | 0.121 µM | 0.0824 | 0.0341 µM | 0.0178 µM
11 | Cn1cc(C2=C(c3cccc(NCC(O)CO)c3)C(=O)NC2=O)c2cc(Cl)ccc21 (stereo not drawn) | 17.1 | 5.77 | 9.5 | 12.6 | > 20.6 | 13.3 | 6.9 | 3.58 µM | 10 | > 23 | 9.55 | 6.9 µM | 0.214 | 2.45 µM | 0.356 | 5.9 | 4.64 µM | 1.78 | 4.78 µM | 3.45 µM
12 | COC(C(=O)[C@@H](O)[C@@H](C)O)[C@@H]1Cc2cc3cc(O[C@H]4C[C@@H](O[C@H]5C[C@@H](O)[C@H](O)C(C)O5)[C@H](O)C(C)O4)c(C)c(O)c3c(O)c2C(=O)[C@H]1O[C@H]1C[C@@H](O[C@H]2C[C@@H](O[C@H]3C[C@@H](O)[C@@H](O)C(C)O3)[C@@H](O)C(C)O2)[C@H](O)C(C)O1 (stereo partly drawn) | > 32.5 | 12.3 | 11.3 | > 32.5 | 2.99 | 9.05 | 2.82 | 0.172 µM | 1.11 | > 32.5 | 3.7 | 6.61 µM | 0.126 | 0.207 µM | 0.0415 | 0.27 | 0.242 µM | 0.147 | 0.422 µM | 0.165 µM
13 | COc1ccc2cc(C(=O)/C=C/c3ccccc3OC)ccc2c1 | 8.14 | 98.9 | 9.51 | > 100 | 5.03 | 23.3 | 4.6 | 10.3 µM | 35.2 | > 100 | > 51.6 | 2.55 µM | 4.18 | 1.6 µM | – | 0.57 | 5.02 µM | 1.72 | 12.7 µM | 4.06 µM
14 | CCC1=C[C@H]2CN(CCc3c([nH]c4ccccc34)[C@@](C(=O)OC)(c3cc4c(cc3OC)N(C)[C@H]3[C@@](O)(C(=O)OC)[C@H](OC(C)=O)[C@]5(CC)[C@@H]6C[C@@H]6CN6CC[C@]43[C@@H]65)C2)C1 | 0.14 | 4.16 | 3.8 | 3.61 | 0.0211 | > 25 | 0.179 | 0.0752 µM | 4.64 | 12.2 | > 25 | 0.0265 µM | 0.053 | 0.0313 µM | 0.0131 | 0.00603 | 0.121 µM | 0.054 | 0.0358 µM | 0.595 µM
15 | CSc1ccc2c(c1)C(=O)c1c-2n(CCCN=[N+]=[N-])c(=O)c2cc([N+](=O)[O-])ccc12 | – | > 100 | > 100 | > 100 | > 100 | > 100 | > 100 | 66.7 µM | > 100 | > 30.5 | > 79.7 | 1.17 µM | > 61.1 | – | 4.09 | 14.1 | 3.48 µM | 1.46 | 0.861 µM | 7.42 µM
16 | COc1ccc2c(c1)N(CCO)C1=C(C(=O)OC1)C2c1cccc(Br)c1 (stereo not drawn) | 0.601 | > 100 | 5.05 | > 100 | 0.0623 | > 100 | 0.859 | 0.0595 µM | 3.24 | 19 | > 100 | 0.0671 µM | 0.209 | 0.0489 µM | 0.0391 | 0.0225 | 0.156 µM | 0.0498 | 0.0913 µM | 0.0647 µM
17 | CCOC(=O)C1=C(N)Oc2cc(OC)ccc2C1c1ccc(F)c(F)c1 (stereo not drawn) | 4.8 | 21.3 | 15.9 | 18.7 | 0.844 | 18.4 | 8.3 | 0.542 µM | 15.8 | 16.4 | 11.1 | 0.404 µM | 2.48 | 0.637 µM | 0.452 | 0.229 | 2.89 µM | 2.13 | 3.66 µM | 1.64 µM
18 | COc1cc2c3c(n(CCCN4CCOCC4)c(=O)c2cc1OC)-c1cc2c(cc1C3=O)OCO2 | > 47 | > 100 | > 100 | > 36.3 | > 84.4 | 27.2 | 2.37 | > 100 µM | > 100 | > 100 | > 100 | 3.57 µM | 71.3 | 32.4 µM | 0.368 | 28 | 1.97 µM | 0.165 | > 77.6 µM | 8.29 µM
19 | CNC(=S)N/N=C(/C)CCC/C(C)=N/NC(=S)NC | > 100 | > 100 | > 100 | 0.563 | > 100 | > 100 | > 100 | – | > 100 | > 100 | > 100 | – | – | – | – | – | – | – | – | –
20 | COC(=O)C12OCC34C(CC5C(C)=CC(=O)C(O)C5(C)C3C(O)C1O)OC(=O)C(OC(=O)CC(C)C)C24 (stereo not drawn) | – | 0.000948 | – | 0.00221 | 0.00697 | – | – | 0.0562 µM and 0.316 µM | – | – | – | < 0.0417 µM and 0.05 µM | – | 0.0511 µM and 0.05 µM | 0.000602 | – | < 0.046 µM and 0.05 µM | < 0.034 | 0.3 µM and 0.05 µM | 0.0825 µM and 0.05 µM
21 | O=C(Nc1cccc2ccccc12)c1cc2ccccc2cc1O | 8.22 | 6.43 | 8.01 | 7.71 | 5.05 | 8.84 | 12.8 | 2.14 µM | 4.69 | 7.55 | 6.11 | 2.37 µM | 1.74 | 2.73 µM | 1.7 | 1.87 | 1.9 µM | 3.28 | 2.5 µM | 1.6 µM
22 | Cc1ccc(S(=O)(=O)N2C/C(=C\c3cc(F)cc(F)c3)C(=O)/C(=C/c3cc(F)cc(F)c3)C2)cc1 | 1.05 | > 43.1 | 0.704 | 1.38 | 0.653 | 4.14 | 2.16 | 0.972 µM | 2.84 | 7.53 | 5.99 | 0.243 µM | 0.513 | 0.268 µM | 0.177 | 0.236 | 1.14 µM | 0.71 | 2.3 µM | 1.91 µM
23 | O=C(O)c1cn(C2CC2)c2cc(N3CCN(C(=O)Nc4nc(-c5ccc(Cl)cc5)cs4)CC3)c(F)cc2c1=O | 4.76 | 66.1 | > 100 | > 100 | > 100 | 39.5 | > 100 | 2.4 µM | 6.85 | 8.12 | 20.5 | 1.47 µM | 1.91 | 2.15 µM | 2.55 | 2.75 | 2.08 µM | 0.775 | 2.35 µM | 2.25 µM
24 | CCOCC[P+](c1ccccc1)(c1ccccc1)c1ccccc1 | 36 | 99.5 | > 100 | 66.4 | 51.9 | 80.9 | > 100 | 18.6 µM | 47.9 | 79.8 | 53.4 | 12.2 µM | 21.7 | 11.2 µM | 13.7 | 9.26 | 17.5 µM | 23.2 | 20.1 µM | 10.8 µM
25 | COc1ccc2c(c1)N(CCC1CCCCN1C)c1ccccc1S2 (stereo not drawn) | 24.8 | 26.5 | 23.6 | 24.5 | 20.6 | 35.2 | 74.4 | – | 29.1 | 31 | 24.6 | – | – | – | – | – | – | – | – | –
26 | COc1cccc(-c2cc(NCc3ccc4c(c3)OCO4)nc(N)n2)c1 | 0.296 | 27.6 | 8.18 | 13.9 | 0.0521 | 16.5 | 3.22 | 0.219 µM | 17.9 | 0.583 | 14.4 | 0.0324 µM | 0.0505 | 0.072 µM | 0.0765 | 0.0175 | 0.135 µM | 0.0909 | 0.0526 µM | 0.0368 µM

Source: PubChem BioAssay (NCI)
